From patent publication US20110178170A1, “GRISEOFULVIN ANALOGUES FOR THE TREATMENT OF CANCER BY INHIBITION OF CENTROSOMAL CLUSTERING” (DKFZ Deutsches Krebsforschungszentrum, priority 2007, published 2011)

How the values were obtained:
[1] = tested on: cancer cells; settings: compared with griseofulvin; cited from earlier work
[2] = tested on: tumor cell lines; test: cell-based screening for inhibition of centrosomal clustering (multipolar mitotic spindles); design: species or system human; settings: several different tumor cell lines; screening of Penicillium extracts
Source text: Supernumerary centrosomes do almost exclusively occur in a wide variety of neoplastic disorders but not in non-transformed cells. Therefore, inhibition of centrosomal clustering with consequential induction of multipolar spindles and subsequent cell death would specifically target tumor cells with no impact on normal cells with a regular centrosome content. To identify cell-permeable small molecules that inhibit centrosomal clustering in cells with supernumerary centrosomes, we developed a cell-based screening strategy founded on the visualization of microtubules and chromatin.
Therefore, we decided to screen a fungal extract library for compounds inhibiting centrosomal clustering. The fungal extracts were selected based on a chemotaxonomic screening approach, in order to increase the chemodiversity to be tested.
The FIGS. 1 to 12 give representative examples of compounds, which have been prepared in the framework of the present invention, together with their activity, which has been determined as described below.
Cell Culture. All cell lines were cultured in Dulbecco's modified Eagle's Medium (DMEM; PAA Laboratories, Pasching, Austria) supplemented with 10% FCS (PAA). […]
Immunofluorescence. […] Immunostained cells were examined using a Zeiss Axiovert 200 M fluorescence microscope (Göttingen, Germany). […]

Compound | inhibiting effect on cancer cells relative to griseofulvin [1] | inhibition of centrosome coalescence [2]
CCCOC1=CC(=O)C[C@@H](C)[C@]12Oc1c(Cl)c(OC)cc(OC)c1C2=O | stronger inhibiting effect on cancer cells than griseofulvin itself | –
COC1=CC(=O)C[C@@H](C)[C@]12Oc1c(Cl)c(OC)cc(OC)c1C2=O [griseofulvin, (2-5-trans)-7-chloro-2,4,6-trimethoxy-6-methylspiro-[benzofuran-2(3H), 1-(2)-cyclohexene]-3,4-dione] | – | inhibitor of centrosome coalescence
